The pKd is the negative decadic logarithm of the Kd, by convention in mol/L. Low readings indicate a large Kd, high ones a small Kd.

Structures are written as SMILES. pKd: −log10 of the molar value.

The assay deals with transferrin receptor (hTfR) (Homo sapiens, UniProt P02786). Nature of the assay: Intermolecular interaction evaluation test between transferrin receptor (hTfR) and peptide-nucleic acid conjugate using surface plasmon resonance (SPR). Format: binding. The procedure: Intermolecular interaction evaluation test between transferrin receptor (hTfR) and peptide using surface plasmon resonance (SPR)
The various synthesized peptide-nucleic acid conjugates were tested for intermolecular interaction by surface plasmon resonance (SPR) of the peptide-nucleic acid conjugate with transferrin receptor (hTfR) using the method shown below. The specific test method is shown below.
NTA sensor chip (Global Life Science Technologies Japan Co., Ltd.) was inserted into Biacore T200 (Global Life Science Technologies Japan Co., Ltd.), prime operation was performed three times with running buffer: 10 mM HEPES pH 8.0 (Nacalai Tesque Co., Ltd.), 150 mM NaCl (Nacalai Tesque Co., Ltd.), 0.05% Tween 20 (Nacalai Tesque Co., Ltd.), 0.1% BSA (SIGMA-ALDRICH), and 1.0% DMSO (FUJIFILM Wako Pure Chemical Corporation), and equilibrated at a flow rate of 30 μL/min. 350 mM EDTA solution was reacted for 60 seconds at a flow rate of 10 μL/min, 0.5 mM NiCl2 solution (Kishida Chemical) was reacted for 60 seconds at a flow rate of 10 μL/min, and the NTA sensor chip was washed with 3 mM EDTA solution (Nacalai Tesque Co., Ltd.) for 60 seconds at a flow rate of 10 μL/min. After mixing 50 μL each of […] EDC solution (Global Life Science Technologies Japan Co., Ltd.) and […] NHS solution (Global Life Science Technologies Japan Co., Ltd.), the mixture was reacted for 420 seconds at a flow rate of 10 μL/min. 150 μL of a 0.5 μM hTfR solution was prepared by diluting with a running buffer and reacted for 300 seconds at a flow rate of 10 μL/min to immobilize hTfR on the NTA sensor chip. After immobilization, capping was performed by reacting with a 1.0 M ethanolamine aqueous solution (Global Life Science Technologies Japan Co., Ltd.) at a flow rate of 10 μL/min for 420 seconds. A peptide-nucleic acid conjugate solution adjusted to 10 mM in DMSO solution was diluted with running buffer to a final concentration of 10 μM peptide-nucleic acid conjugate solution, and 100 nM, 50 nM, 25 nM, 10 nM, 5 nM peptide-nucleic acid conjugate solutions were prepared. Using the aforementioned samples, the kinetics of the peptide against hTfR was obtained by SPR measurement.
The kinetics evaluation model was Single Cycle Kinetics, and curve fitting was performed using Biacore T200 Evaluation Software Version 3.0 (Global Life Science Technologies Japan Co., Ltd.). The obtained sensorgram was subjected to curve fitting using the least squares method, and the binding of the peptide-nucleic acid conjugate to hTfR was evaluated by determining the KD value.
(Surface plasmon resonance follows binding to a sensor surface in real time, without labels.)

Sequence of transferrin receptor (hTfR) (P02786 whole entry): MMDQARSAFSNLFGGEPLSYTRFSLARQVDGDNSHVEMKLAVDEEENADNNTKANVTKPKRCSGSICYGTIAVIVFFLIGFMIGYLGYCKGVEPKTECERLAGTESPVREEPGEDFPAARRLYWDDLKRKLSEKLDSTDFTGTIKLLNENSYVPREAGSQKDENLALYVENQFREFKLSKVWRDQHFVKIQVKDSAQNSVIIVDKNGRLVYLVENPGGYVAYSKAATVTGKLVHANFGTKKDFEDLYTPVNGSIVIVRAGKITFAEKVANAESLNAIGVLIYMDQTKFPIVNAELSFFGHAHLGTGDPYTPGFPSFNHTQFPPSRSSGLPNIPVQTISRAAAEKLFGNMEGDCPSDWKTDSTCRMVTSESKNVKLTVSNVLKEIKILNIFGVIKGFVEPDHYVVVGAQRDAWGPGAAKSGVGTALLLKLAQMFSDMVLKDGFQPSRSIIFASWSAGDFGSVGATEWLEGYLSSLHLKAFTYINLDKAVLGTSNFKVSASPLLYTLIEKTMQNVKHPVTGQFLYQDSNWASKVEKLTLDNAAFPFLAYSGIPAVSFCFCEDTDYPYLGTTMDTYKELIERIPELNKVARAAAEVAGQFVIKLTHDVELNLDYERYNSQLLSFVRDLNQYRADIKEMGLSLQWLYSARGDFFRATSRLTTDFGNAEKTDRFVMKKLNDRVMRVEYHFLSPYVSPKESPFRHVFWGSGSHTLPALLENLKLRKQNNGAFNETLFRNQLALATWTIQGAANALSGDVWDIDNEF

The molecule `CC[C@H](C)[C@@H]1NC(=O)[C@H](Cc2ccc(O)cc2)NC(=O)[C@H](Cc2ccc(O)cc2)NC(=O)[C@H](CC(N)=O)NC(=O)[C@H](Cc2c[nH]c3ccccc23)NC(=O)[C@H](C(C)C)NC(=O)[C@H](Cc2ccccc2)N(C)C(=O)[C@H](C(C)C)NC(=O)[C@H](C)NC(=O)CSC[C@@H](C(=O)NCC(=O)N[C@@H](CCCCn2nnc3c2CCC2C(CC3)C2COC(=O)NCCOCCOCC(=O)N[C@@H](CCCNC(=N)N)C(=O)N[C@@H](CCCNC(=N)N)C(=O)N[C@@H](CCCNC(=N)N)C(=O)NCCC(=O)N2C[C@@H](COP(=O)(N(C)C)N3C[C@@H](COP(=O)(N(C)C)N4C[C@@H](COP(=O)(N(C)C)N5C[C@@H](COP(=O)(N(C)C)N6C[C@@H](COP(=O)(N(C)C)N7C[C@@H](COP(=O)(N(C)C)N8C[C@@H](COP(=O)(N(C)C)N9C[C@@H](COP(=O)(N(C)C)N%10C[C@@H](COP(=O)(N(C)C)N%11C[C@@H](COP(=O)(N(C)C)N%12C[C@@H](COP(=O)(N(C)C)N%13C[C@@H](COP(=O)(N(C)C)N%14C[C@@H](COP(=O)(N(C)C)N%15C[C@@H](COP(=O)(N(C)C)N%16C[C@@H](COP(=O)(N(C)C)N%17C[C@@H](COP(=O)(N(C)C)N%18C[C@@H](COP(=O)(N(C)C)N%19C[C@@H](COP(=O)(N(C)C)N%20C[C@@H](COP(=O)(N(C)C)N%21C[C@@H](COP(=O)(N(C)C)N%22C[C@@H](COP(=O)(N(C)C)N%23C[C@@H](COP(=O)(N(C)C)N%24C[C@@H](COP(=O)(N(C)C)N%25C[C@@H](COP(=O)(N(C)C)N%26C[C@@H](COP(=O)(N(C)C)N(C)CC(N)=O)O[C@@H](n%27cnc%28c(=O)[nH]c(N)nc%28%27)C%26)O[C@@H](n%26cc(C)c(=O)[nH]c%26=O)C%25)O[C@@H](n%25cc(C)c(=O)[nH]c%25=O)C%24)O[C@@H](n%24cnc%25c(=O)[nH]c(N)nc%25%24)C%23)O[C@@H](n%23ccc(N)nc%23=O)C%22)O[C@@H](n%22ccc(N)nc%22=O)C%21)O[C@@H](n%21cc(C)c(=O)[nH]c%21=O)C%20)O[C@@H](n%20ccc(N)nc%20=O)C%19)O[C@@H](n%19ccc(N)nc%19=O)C%18)O[C@@H](n%18cnc%19c(=O)[nH]c(N)nc%19%18)C%17)O[C@@H](n%17cnc%18c(=O)[nH]c(N)nc%18%17)C%16)O[C@@H](n%16cc(C)c(=O)[nH]c%16=O)C%15)O[C@@H](n%15cc(C)c(=O)[nH]c%15=O)C%14)O[C@@H](n%14ccc(N)nc%14=O)C%13)O[C@@H](n%13cc(C)c(=O)[nH]c%13=O)C%12)O[C@@H](n%12cnc%13c(=O)[nH]c(N)nc%13%12)C%11)O[C@@H](n%11cnc%12c(N)ncnc%12%11)C%10)O[C@@H](n%10cnc%11c(N)ncnc%11%10)C9)O[C@@H](n9cnc%10c(=O)[nH]c(N)nc%109)C8)O[C@@H](n8cnc9c(=O)[nH]c(N)nc98)C7)O[C@@H](n7cc(C)c(=O)[nH]c7=O)C6)O[C@@H](n6cnc7c(=O)[nH]c(N)nc76)C5)O[C@@H](n5cc(C)c(=O)[nH]c5=O)C4)O[C@@H](n4cc(C)c(=O)[nH]c4=O)C3)O[C@@H](n3ccc(N)nc3=O)C2)C(N)=O)NC(=O)[C@H](Cc2ccc(O)cc2)N(C)C(=O)[C@H](Cc2ccc(O)cc2)NC(=O)[C@H](CCCNC(=N)N)NC(=O)[C@H](CCCNC(=N)N)NC(=O)[C@H]([C@@H](C)CC)NC1=O` (some centres unmarked) [Example 57] had a pKd of over 7.00.

The molecule `CC[C@H](C)[C@@H]1NC(=O)[C@H](Cc2ccc(O)cc2)NC(=O)[C@H](Cc2ccc(O)cc2)NC(=O)[C@H](CC(N)=O)NC(=O)[C@H](Cc2c[nH]c3ccccc23)NC(=O)[C@H](C(C)C)NC(=O)[C@H](Cc2ccccc2)N(C)C(=O)[C@H](C(C)C)NC(=O)[C@H](C)NC(=O)CSC[C@@H](C(=O)NCC(=O)N[C@@H](CCCCn2nnc3c2CCC2C(CC3)C2COC(=O)NCC(=O)NCC(=O)NCC(=O)N[C@@H](CCC(=O)O)C(=O)N[C@@H](CCC(=O)O)C(=O)N[C@@H](CCC(=O)O)C(=O)N[C@@H](CO)C(=O)N[C@@H](CO)C(=O)N[C@@H](CSC2CC(=O)N(CCC(=O)N3C[C@@H](COP(=O)(N(C)C)N4C[C@@H](COP(=O)(N(C)C)N5C[C@@H](COP(=O)(N(C)C)N6C[C@@H](COP(=O)(N(C)C)N7C[C@@H](COP(=O)(N(C)C)N8C[C@@H](COP(=O)(N(C)C)N9C[C@@H](COP(=O)(N(C)C)N%10C[C@@H](COP(=O)(N(C)C)N%11C[C@@H](COP(=O)(N(C)C)N%12C[C@@H](COP(=O)(N(C)C)N%13C[C@@H](COP(=O)(N(C)C)N%14C[C@@H](COP(=O)(N(C)C)N%15C[C@@H](COP(=O)(N(C)C)N%16C[C@@H](COP(=O)(N(C)C)N%17C[C@@H](COP(=O)(N(C)C)N%18C[C@@H](COP(=O)(N(C)C)N%19C[C@@H](COP(=O)(N(C)C)N%20C[C@@H](COP(=O)(N(C)C)N%21C[C@@H](COP(=O)(N(C)C)N%22C[C@@H](COP(=O)(N(C)C)N%23C[C@@H](COP(=O)(N(C)C)N%24C[C@@H](COP(=O)(N(C)C)N%25C[C@@H](COP(=O)(N(C)C)N%26C[C@@H](COP(=O)(N(C)C)N%27C[C@@H](COP(=O)(N(C)C)N(C)CC(N)=O)O[C@@H](n%28cnc%29c(=O)[nH]c(N)nc%29%28)C%27)O[C@@H](n%27cc(C)c(=O)[nH]c%27=O)C%26)O[C@@H](n%26cc(C)c(=O)[nH]c%26=O)C%25)O[C@@H](n%25cnc%26c(=O)[nH]c(N)nc%26%25)C%24)O[C@@H](n%24ccc(N)nc%24=O)C%23)O[C@@H](n%23ccc(N)nc%23=O)C%22)O[C@@H](n%22cc(C)c(=O)[nH]c%22=O)C%21)O[C@@H](n%21ccc(N)nc%21=O)C%20)O[C@@H](n%20ccc(N)nc%20=O)C%19)O[C@@H](n%19cnc%20c(=O)[nH]c(N)nc%20%19)C%18)O[C@@H](n%18cnc%19c(=O)[nH]c(N)nc%19%18)C%17)O[C@@H](n%17cc(C)c(=O)[nH]c%17=O)C%16)O[C@@H](n%16cc(C)c(=O)[nH]c%16=O)C%15)O[C@@H](n%15ccc(N)nc%15=O)C%14)O[C@@H](n%14cc(C)c(=O)[nH]c%14=O)C%13)O[C@@H](n%13cnc%14c(=O)[nH]c(N)nc%14%13)C%12)O[C@@H](n%12cnc%13c(N)ncnc%13%12)C%11)O[C@@H](n%11cnc%12c(N)ncnc%12%11)C%10)O[C@@H](n%10cnc%11c(=O)[nH]c(N)nc%11%10)C9)O[C@@H](n9cnc%10c(=O)[nH]c(N)nc%109)C8)O[C@@H](n8cc(C)c(=O)[nH]c8=O)C7)O[C@@H](n7cnc8c(=O)[nH]c(N)nc87)C6)O[C@@H](n6cc(C)c(=O)[nH]c6=O)C5)O[C@@H](n5cc(C)c(=O)[nH]c5=O)C4)O[C@@H](n4ccc(N)nc4=O)C3)C2=O)C(N)=O)C(N)=O)NC(=O)[C@H](Cc2ccc(O)cc2)N(C)C(=O)[C@H](Cc2ccc(O)cc2)NC(=O)[C@H](CCCNC(=N)N)NC(=O)[C@H](CCCNC(=N)N)NC(=O)[C@H]([C@@H](C)CC)NC1=O` (some centres unmarked) [Example 58] had a pKd of over 7.00.

These data come from patent US20240390508A1, “HUMAN TRANSFERRIN RECEPTOR BINDING PEPTIDE-DRUG CONJUGATE” (priority 2021, published 2024).
